Here are results for three molecules from US20260201347A1, “ARTIFICIAL BIFUNCTIONAL ENZYME COMPRISING A MYELOPEROXIDASE ACTIVITY AND A GLUCOSE OXIDASE ACTIVITY AND APPLICATIONS THEREOF” (UNIVERSITÉ DE BORDEAUX, priority 2022, published 2026).

Structures are written as SMILES. “And” between values parts separate entries of the source, which are not always exact repeats. Equal entries are not always repeated. Where two headings read alike, the source gives them in different places.

Test [1] has as its system RbMPO-LGKRGAGA-GOx chimera (Rhodopirellula baltica myeloperoxidase, SEQ ID NO: 10; linker SEQ ID NO: 5; Penicillium amagasakiens glucose oxidase, SEQ ID NO: 12). To be noted: result in words. The method, then: (§1) The fluorescent probe aminophenyl fluorescein (APF) (λexcitation=485 nm and λemission=525 nm) was used to measure the HOCl production by the chimera, as a measure of its chlorination activity. Three tests were performed: (1) at different glucose concentrations (0, 1, 2, 3, 4, 5, 6, 8, 10, 15, 20 mM) with fixed concentrations of chimera (1 μM) and NaCl (20 mM); (2) at different NaCl concentrations (0, 10, 20, 50, 100, 250, 500, 750 μM and 1 mM) with fixed concentrations of chimera (1 μM) and glucose (20 mM); (3) at different H2O2 concentrations (0, 0.01, 0.02, 0.05, 0.079, 0.1, 0.25, 0.5, 0.75, 1, 2, 4, 6, 8, 10, 20, 40, 60, 80, 100, 200, 500 mM) with fixed concentrations of chimera (1 μM) and NaCl (20 mM). For all experiments, 10 μM APF was used in each assay with 50 mM NaPi buffer pH7.5 QSP 20 μL (384-well plate). Each experiment was performed in triplicate. A 10-30 min. kinetic was performed for each range value and the increase rate of fluorescence intensity was compared to the standard fluorescein range. The measured fluorescence per second was thus proportional to the amount of fluorescein, which in turn was proportional to the amount of HOCl produced by the chimeras.
(§2) Steady-state kinetic parameters were determined by adjustment of experimental data to the following equations depending on the appearance of saturation curves: […]

The target of test [2] is RbMPO-LEKREAEALEKREAEA-GOx chimera (Rhodopirellula baltica myeloperoxidase, SEQ ID NO: 10); linker SEQ ID NO: 6; Penicillium amagasakiens glucose oxidase, SEQ ID (Penicillium amagasakiense, UniProt P81156). The conditions noted are these: 20 mM NaCl, pH7.5; for Km: read-out: KM H2O2; for Ki: read-out: Ki H2O2, substrate inhibition.
Protocol: The fluorescent probe aminophenyl fluorescein (APF) (λexcitation=485 nm and λemission=525 nm) was used to measure the HOCl production by the chimera, as a measure of its chlorination activity. […] For all experiments, 10 μM APF was used in each assay with 50 mM NaPi buffer pH7.5 QSP 20 μL (384-well plate). Each experiment was performed in triplicate. A 10-30 min. kinetic was performed for each range value and the increase rate of fluorescence intensity was compared to the standard fluorescein range. The measured fluorescence per second was thus proportional to the amount of fluorescein, which in turn was proportional to the amount of HOCl produced by the chimeras.
In test [3] the target is RbMPO-LEKRPEAEA-GOx chimera (Rhodopirellula baltica myeloperoxidase, SEQ ID NO: 10); linker SEQ ID NO: 8; Penicillium amagasakiens glucose oxidase, SEQ ID NO: 12 (Penicillium amagasakiense, UniProt P81156). The conditions noted are these: 20 mM NaCl, pH7.5; for Km: read-out: KM H2O2; for Ki: read-out: Ki H2O2, substrate inhibition. The protocol:
as §1, §2
(§3) In order to determine the RbMPO activity of the chimeras, a H2O2 concentration range was performed at a fixed concentration of NaCl. HOCl reacted with APF probe and apparition of fluorescein was monitored.

Test [4] concerns the target T1, RbMPO-GOx chimera, no linker (Rhodopirellula baltica myeloperoxidase, SEQ ID NO: 10, fused to Penicillium amagasakiens glucose oxidase, SEQ ID NO: 12) (Penicillium amagasakiense, UniProt P81156). The conditions noted are these: monomer, 20 mM NaCl, pH7.5. The protocol:
as §1, §2, §3
Target sequence in this assay (P81156 other isoform, or with tags, fused parts or gaps): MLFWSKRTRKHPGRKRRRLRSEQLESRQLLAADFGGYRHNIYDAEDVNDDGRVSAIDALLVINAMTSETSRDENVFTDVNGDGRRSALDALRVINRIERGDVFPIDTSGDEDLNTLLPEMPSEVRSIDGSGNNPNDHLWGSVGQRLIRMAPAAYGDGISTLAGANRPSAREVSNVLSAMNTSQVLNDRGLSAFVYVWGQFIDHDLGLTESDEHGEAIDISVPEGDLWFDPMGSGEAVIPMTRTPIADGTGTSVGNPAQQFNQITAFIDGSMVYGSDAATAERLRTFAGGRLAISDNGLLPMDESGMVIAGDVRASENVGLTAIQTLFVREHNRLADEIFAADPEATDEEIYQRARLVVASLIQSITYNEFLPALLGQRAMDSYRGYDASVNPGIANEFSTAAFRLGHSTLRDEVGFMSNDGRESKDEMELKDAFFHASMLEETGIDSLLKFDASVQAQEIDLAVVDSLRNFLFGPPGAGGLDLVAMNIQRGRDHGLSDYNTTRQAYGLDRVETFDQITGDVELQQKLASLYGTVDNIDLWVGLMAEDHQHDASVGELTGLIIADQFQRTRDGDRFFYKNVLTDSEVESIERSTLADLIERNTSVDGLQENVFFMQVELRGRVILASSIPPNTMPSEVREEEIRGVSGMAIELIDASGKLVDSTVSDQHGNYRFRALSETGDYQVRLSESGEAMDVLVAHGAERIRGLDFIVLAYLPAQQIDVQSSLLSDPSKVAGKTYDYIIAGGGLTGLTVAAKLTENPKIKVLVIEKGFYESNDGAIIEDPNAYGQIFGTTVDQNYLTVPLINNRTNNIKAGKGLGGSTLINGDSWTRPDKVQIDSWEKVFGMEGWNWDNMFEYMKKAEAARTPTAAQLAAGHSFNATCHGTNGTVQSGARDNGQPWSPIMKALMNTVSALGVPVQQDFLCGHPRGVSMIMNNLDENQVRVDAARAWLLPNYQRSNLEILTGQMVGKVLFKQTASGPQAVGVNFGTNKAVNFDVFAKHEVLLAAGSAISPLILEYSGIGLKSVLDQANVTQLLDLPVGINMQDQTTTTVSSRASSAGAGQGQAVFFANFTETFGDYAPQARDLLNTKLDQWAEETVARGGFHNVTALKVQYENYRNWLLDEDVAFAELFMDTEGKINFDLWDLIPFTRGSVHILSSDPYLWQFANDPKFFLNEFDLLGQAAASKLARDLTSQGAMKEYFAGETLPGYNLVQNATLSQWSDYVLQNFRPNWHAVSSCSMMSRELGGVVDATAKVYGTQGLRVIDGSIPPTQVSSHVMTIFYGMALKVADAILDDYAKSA

Test [5] concerns the target RbMPO-LEKREAEA-GOx chimera (Rhodopirellula baltica myeloperoxidase, SEQ ID NO: 10; linker SEQ ID NO: 7; Penicillium amagasakiens glucose oxidase, SEQ ID NO: 12) (Penicillium amagasakiense, UniProt P81156). To be noted: trimer, 20 mM NaCl, pH7.5. The method, then: as §1, §2, §3
In test [6] the target is T2, RbMPO-LEGGEAEA-GOx chimera (Rhodopirellula baltica myeloperoxidase, SEQ ID NO: 10; linker SEQ ID NO: 4; Penicillium amagasakiens glucose oxidase, SEQ ID NO: 12) (Penicillium amagasakiense, UniProt P81156). The method, then: as §1, §2, §3
T2 sequence (P81156 with tags, fused parts or gaps): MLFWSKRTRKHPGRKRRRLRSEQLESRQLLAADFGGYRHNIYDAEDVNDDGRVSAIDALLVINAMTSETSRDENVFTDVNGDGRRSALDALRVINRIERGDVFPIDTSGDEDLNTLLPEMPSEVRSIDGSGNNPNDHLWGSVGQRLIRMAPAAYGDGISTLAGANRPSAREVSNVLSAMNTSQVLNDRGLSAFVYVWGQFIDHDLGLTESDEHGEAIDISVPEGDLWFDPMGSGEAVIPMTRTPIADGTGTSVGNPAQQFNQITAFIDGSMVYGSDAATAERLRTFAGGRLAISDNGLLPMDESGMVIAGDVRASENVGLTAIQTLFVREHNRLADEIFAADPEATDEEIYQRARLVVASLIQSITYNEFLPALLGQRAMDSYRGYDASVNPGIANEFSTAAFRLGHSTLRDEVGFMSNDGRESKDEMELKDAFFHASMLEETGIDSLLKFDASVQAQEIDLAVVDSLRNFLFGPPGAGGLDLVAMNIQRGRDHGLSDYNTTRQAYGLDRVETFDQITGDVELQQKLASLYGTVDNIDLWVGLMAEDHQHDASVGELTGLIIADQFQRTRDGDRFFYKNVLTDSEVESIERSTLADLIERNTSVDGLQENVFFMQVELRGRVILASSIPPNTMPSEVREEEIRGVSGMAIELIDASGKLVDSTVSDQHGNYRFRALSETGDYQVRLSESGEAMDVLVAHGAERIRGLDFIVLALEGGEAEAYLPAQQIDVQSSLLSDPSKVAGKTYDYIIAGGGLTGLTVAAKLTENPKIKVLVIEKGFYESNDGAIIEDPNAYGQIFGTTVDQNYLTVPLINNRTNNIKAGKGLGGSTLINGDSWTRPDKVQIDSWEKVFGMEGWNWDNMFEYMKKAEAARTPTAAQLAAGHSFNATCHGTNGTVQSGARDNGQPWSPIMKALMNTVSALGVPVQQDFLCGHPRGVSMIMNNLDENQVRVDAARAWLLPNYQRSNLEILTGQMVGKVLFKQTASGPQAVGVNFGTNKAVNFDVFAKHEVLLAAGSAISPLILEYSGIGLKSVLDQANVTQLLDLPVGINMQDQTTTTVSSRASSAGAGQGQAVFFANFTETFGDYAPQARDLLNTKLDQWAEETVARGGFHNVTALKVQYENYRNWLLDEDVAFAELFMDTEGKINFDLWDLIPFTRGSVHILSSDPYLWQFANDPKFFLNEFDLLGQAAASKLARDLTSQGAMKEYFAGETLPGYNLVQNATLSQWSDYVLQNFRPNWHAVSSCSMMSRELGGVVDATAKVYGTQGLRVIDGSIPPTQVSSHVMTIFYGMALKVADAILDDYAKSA
Test [7] addresses RbMPO-GGGGGGGG-GOx chimera (Rhodopirellula baltica myeloperoxidase, SEQ ID NO: 10; linker SEQ ID NO: 9; Penicillium amagasakiens glucose oxidase, SEQ ID NO: 12) (Penicillium amagasakiense, UniProt P81156). To be noted: 20 mM NaCl, pH7.5; for Km: read-out: KM H2O2; for Ki: read-out: Ki H2O2, substrate inhibition. The method, then: as §1, §2, §3
The target in test [8] is T2, RbMPO-LEGGEAEA-GOx chimera (Rhodopirellula baltica myeloperoxidase, SEQ ID NO: 10; linker SEQ ID NO: 4; Penicillium amagasakiens glucose oxidase, SEQ ID NO: 12). To be noted: monomer 1, NaSCN as a substrate, 50 mM glucose, pH6, 37° C. The protocol: Initial rate measurements under steady state conditions were made with a BioLogic SFM400 stopped-flow by using a single-mixing mode and Xe/Hg lamp and a TC100/10 cell. One syringe was filled with the chimera and another one with glucose and NaSCN. The concentrations of the chimera and glucose were fixed (300 nM and 50 mM, respectively), and measurement was carried out at 37° C. and at 240 nm. The appearance of −OSCN (hypothiocyanate) was measured at 240 nm at 37° C. in a 50 mM pH6 sodium phosphate buffer. At least five shots of 120 s were performed for each value of the NaSCN substrate range with the following sample period: 20 μs, 20 ms, 20 ms with 2000 points per period. Slopes were calculated from shots average for each concentration and kss (s^−1) were determined using slopes with the following formula:
The molar extinction coefficient of −OSCN is ε−OSCN=[…]. Collecting data were analysed with Origin software and kss values were fitted with Michaëlis-Menten equation.

Test [9] has as its target T1, RbMPO-GOx chimera, no linker (Rhodopirellula baltica myeloperoxidase, SEQ ID NO: 10, fused to Penicillium amagasakiens glucose oxidase, SEQ ID NO: 12). The test can be described thus: Coupled active sites, HOCl production from glucose, APF assay (Table 9), chimera without linker. It is filed as biochemical. Also on record: heme and FAD reconstituted; monomer; GOx mature part (P81156 19-605). To be noted: monomer; fixed NaCl 20 mM, pH7.5. The method, then:
(§4) Each experiment was performed in triplicate.
(§5) The activity of the two active sites was then assessed in conjunction to each other (FIG. 1).
(§6) Briefly, the aim was to measure the production of HOCl from glucose and NaCl as respective substrates of the enzymes, using the APF probe. Two types of kinetics were performed: • i) kinetics at various concentrations of glucose and a fixed concentration of NaCl, and • ii) kinetics at various concentration of NaCl and a fixed concentration of glucose.
Target sequence in this assay (P81156 19-605, change not shown): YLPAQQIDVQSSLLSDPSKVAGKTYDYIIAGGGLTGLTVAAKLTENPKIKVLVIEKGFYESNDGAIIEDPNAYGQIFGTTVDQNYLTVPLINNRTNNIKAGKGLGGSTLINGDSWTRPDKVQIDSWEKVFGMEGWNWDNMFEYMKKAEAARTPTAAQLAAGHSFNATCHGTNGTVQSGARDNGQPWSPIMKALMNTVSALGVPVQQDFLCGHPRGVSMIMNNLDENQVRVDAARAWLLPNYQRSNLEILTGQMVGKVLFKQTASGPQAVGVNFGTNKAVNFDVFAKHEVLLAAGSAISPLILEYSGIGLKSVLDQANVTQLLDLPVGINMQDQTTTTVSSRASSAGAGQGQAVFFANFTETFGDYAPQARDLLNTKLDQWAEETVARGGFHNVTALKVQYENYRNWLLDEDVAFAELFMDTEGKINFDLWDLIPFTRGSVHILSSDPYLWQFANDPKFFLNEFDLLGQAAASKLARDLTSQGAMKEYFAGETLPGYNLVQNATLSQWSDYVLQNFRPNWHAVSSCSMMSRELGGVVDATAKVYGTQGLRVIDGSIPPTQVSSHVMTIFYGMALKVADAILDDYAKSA

The target of test [10] is T3, RbMPO-LEKREAEALEKREAEA-GOx chimera (Rhodopirellula baltica myeloperoxidase, SEQ ID NO: 10); linker SEQ ID NO: 6; Penicillium amagasakiens glucose oxidase, SEQ ID (Penicillium amagasakiense, UniProt P81156).
T3 construct: 6His (in the pET21a vector behind the XhoI site); made in house; host or cells: E. coli BL21Star (DE3)
The test can be described thus: Coupled active sites, HOCl production from glucose, APF assay (Table 9), linker LEKREAEALEKREAEA
The class given is biochemical. To be noted: dimer/monomer; fixed NaCl 20 mM, pH7.5. The method, then: as §4, §5, §6

The target in test [11] is T4, RbMPO-LGKRGAGA-GOx chimera (Rhodopirellula baltica myeloperoxidase, SEQ ID NO: 10; linker SEQ ID NO: 5; Penicillium amagasakiens glucose oxidase, SEQ ID NO: 12) (Penicillium amagasakiense, UniProt P81156).
T4 construct: 6His (in the pET21a vector behind the XhoI site); made in house; host or cells: E. coli BL21Star (DE3)
Put plainly: Coupled active sites, HOCl production from glucose, APF assay (Table 9), linker LGKRGAGA
The conditions noted are these: trimer; fixed NaCl 20 mM, pH7.5. It is filed as biochemical. The protocol: as §4, §5, §6

The target of test [12] is T2, RbMPO-LEGGEAEA-GOx chimera (Rhodopirellula baltica myeloperoxidase, SEQ ID NO: 10; linker SEQ ID NO: 4; Penicillium amagasakiens glucose oxidase, SEQ ID NO: 12). Put plainly: Coupled active sites, HOCl production from glucose, APF assay (Table 9), linker LEGGEAEA
It is filed as biochemical. Also on record: 6His (in the pET21a vector behind the XhoI site); made in house; host or cells: E. coli BL21Star (DE3). The method, then: as §4, §5, §6

The mark [13] stands for this setting: read-out: Ki H2O2, substrate inhibition.
The mark [14] stands for this setting: mixture of oligomers, 15 mM glucose and 500 mM NaCl.

Chain of RbMPO-GGGGGGGG-GOx chimera (Rhodopirellula baltica myeloperoxidase, SEQ ID NO: 10; linker SEQ ID NO: 9; Penicillium amagasakiens glucose oxidase, SEQ ID NO: 12) (P81156 with tags, fused parts or gaps): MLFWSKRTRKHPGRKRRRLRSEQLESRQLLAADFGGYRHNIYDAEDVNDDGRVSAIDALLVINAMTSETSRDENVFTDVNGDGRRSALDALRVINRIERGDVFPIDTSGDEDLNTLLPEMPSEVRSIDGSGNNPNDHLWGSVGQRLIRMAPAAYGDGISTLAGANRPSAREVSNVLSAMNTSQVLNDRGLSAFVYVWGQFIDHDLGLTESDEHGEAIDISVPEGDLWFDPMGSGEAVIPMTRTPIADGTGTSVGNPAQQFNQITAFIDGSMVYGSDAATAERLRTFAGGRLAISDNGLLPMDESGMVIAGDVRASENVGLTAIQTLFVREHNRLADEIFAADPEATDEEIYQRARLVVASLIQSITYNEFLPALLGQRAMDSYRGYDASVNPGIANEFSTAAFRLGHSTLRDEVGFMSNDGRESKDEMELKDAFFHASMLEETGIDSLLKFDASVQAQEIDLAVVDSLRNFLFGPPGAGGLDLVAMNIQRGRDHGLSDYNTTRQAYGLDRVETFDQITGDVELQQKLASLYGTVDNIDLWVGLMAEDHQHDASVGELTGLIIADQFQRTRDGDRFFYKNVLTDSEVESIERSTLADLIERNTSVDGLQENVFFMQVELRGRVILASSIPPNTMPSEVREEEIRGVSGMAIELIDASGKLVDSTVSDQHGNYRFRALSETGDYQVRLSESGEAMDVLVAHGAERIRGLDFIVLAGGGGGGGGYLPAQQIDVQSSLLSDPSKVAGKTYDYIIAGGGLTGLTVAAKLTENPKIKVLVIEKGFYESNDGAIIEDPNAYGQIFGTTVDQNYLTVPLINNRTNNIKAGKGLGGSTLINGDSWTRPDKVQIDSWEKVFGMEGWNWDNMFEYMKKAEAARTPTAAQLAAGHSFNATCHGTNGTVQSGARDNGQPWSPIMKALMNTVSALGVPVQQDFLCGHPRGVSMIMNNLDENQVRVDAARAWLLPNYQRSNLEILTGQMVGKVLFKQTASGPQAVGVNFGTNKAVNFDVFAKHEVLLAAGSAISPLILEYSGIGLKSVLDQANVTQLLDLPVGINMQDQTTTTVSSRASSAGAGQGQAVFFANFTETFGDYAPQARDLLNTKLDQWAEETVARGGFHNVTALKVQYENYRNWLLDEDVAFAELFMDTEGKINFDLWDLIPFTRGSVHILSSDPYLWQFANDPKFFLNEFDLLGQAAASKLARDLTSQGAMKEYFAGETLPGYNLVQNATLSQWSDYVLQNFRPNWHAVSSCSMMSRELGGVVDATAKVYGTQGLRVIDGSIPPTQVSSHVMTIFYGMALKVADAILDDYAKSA

A word on the kcat: it is the maximal rate divided by the concentration of active sites. As a reminder, the kcat/KM is the second-order rate constant that governs catalysis at low substrate concentration. Usually Km stands for the concentration of substrate that gives half-maximal velocity. Take `OO` [H2O2, hydrogen peroxide]: the “inhibition by H2O2” value in test [1] and in test [6] (result in words) was “weak inhibition” in each case. The kcat in test [2] (dimer/monomer) turned out to be 0.00374 s⁻¹; in test [2] (trimer), 0.0047 s⁻¹; in [3] (dimer/monomer) it was 0.000576 s⁻¹; in test [3] (excluded), 0.0001553 s⁻¹; in test [3] (trimer), 0.0003 s⁻¹; in [4], 0.0012 s⁻¹. Moreover, the kcat in test [5] stood at 0.000587 s⁻¹; in test [6] (monomer 1, 20 mM NaCl, pH7.5) it was 0.0003086 s⁻¹; in test [7] (dimer/monomer), 0.00418 s⁻¹; in test [7] (excluded), 0.0001682 s⁻¹; in test [7] (monomer) it was 0.0001798 s⁻¹; in test [7] (trimer) it was 0.0005086 s⁻¹. The kcat/KM in test [2] (dimer/monomer) is 1508 ± 19.4 M⁻¹ s⁻¹ and 1508 ± 107 M⁻¹ s⁻¹; in test [2] (trimer), 361.5 ± 64.5 M⁻¹ s⁻¹; in test [3] (dimer/monomer), 16.08 ± 17.15 M⁻¹ s⁻¹; in test [3] (excluded), 6.82 ± 4.27 M⁻¹ s⁻¹; in test [3] (trimer) it was 0.426 ± 0.365 M⁻¹ s⁻¹; in test [4] it was 4.44 ± 3.15 M⁻¹ s⁻¹. Moreover, the catalytic efficiency (kcat/KM) is 13.04 ± 6.51 M⁻¹ s⁻¹ in test [5]; 34.2 ± 19.4 M⁻¹ s⁻¹ in test [6] (monomer 1, 20 mM NaCl, pH7.5); 363.5 ± 382.3 M⁻¹ s⁻¹ in [7] (dimer/monomer); 1 ± 0.6 M⁻¹ s⁻¹ and 0.998 ± 0.603 M⁻¹ s⁻¹ in test [7] (excluded); 38.3 ± 23.6 M⁻¹ s⁻¹ in test [7] (monomer); 177.8 ± 133.1 M⁻¹ s⁻¹ in test [7] (trimer). Besides, the “kss/[H2O2]” value in test [2] (excluded) is 0.0051 ± 0.00035 M⁻¹ s⁻¹. Moreover, the Km in [2] (dimer/monomer) worked out at 2.48 µM; in [2] (trimer), 13 ± 1 µM; in test [3] (dimer/monomer), 36 ± 25 µM; in [3] (excluded) it was 23 ± 11 µM; in test [3] (trimer) it was 704 ± 448 µM; in [4] (read-out: KM H2O2) it was 270 ± 140 µM. Also, the Km in test [5] (read-out: KM H2O2) came out at 45 ± 15 µM; in test [6] (read-out: KM H2O2, monomer 1, 20 mM NaCl, pH7.5), 9.02 µM; in [7] (dimer/monomer) it was 11.5 µM; in test [7] (excluded), 168 ± 81 µM; in test [7] (monomer) it was 4.7 µM; in test [7] (trimer), 2.86 µM. Besides, the Ki in test [2] (dimer/monomer) came to 4.63 ± 1.05 mM; in test [2] (trimer), 0.597 ± 0.211 mM; in test [3] (dimer/monomer) it was 6.3 ± 3.33 mM; in [3] (excluded), 17.3 ± 10.6 mM; in test [3] (trimer), 35.9 ± 22.2 mM; in test [4] (setting [13]), 1.91 ± 0.48 mM. Besides, the Ki turned out to be 2.12 ± 1.7 mM in test [5] (setting [13]); 34.9 ± 12.6 mM in test [6] (read-out: Ki H2O2, monomer 1, 20 mM NaCl, pH7.5, substrate inhibition); 0.0329 mM in [7] (dimer/monomer); 13.1 ± 4.9 mM in test [7] (monomer); 5.92 ± 3.22 mM in test [7] (trimer).
For `N#CS` [SCN, thiocyanate], in test [8], the kcat was found to be 0.31 s⁻¹ and the specificity constant (kcat/KM) is 1409 M⁻¹ s⁻¹. Further, the Km in test [8] (read-out: KM SCN) was found to be 220 µM.
As to `OC[C@H]1OC(O)[C@H](O)[C@@H](O)[C@@H]1O` (stereo partly drawn) [glucose], in [9], the Michaelis constant (Km) was 3.02 ± 0.77 mM and the kcat stood at 3.09e-05 s⁻¹. The kcat/KM glucose in [10] turned out to be 2.47 ± 1.58 M⁻¹ s⁻¹. The kcat/KM glucose in test [11] is 1.1 ± 0.8 M⁻¹ s⁻¹. In test [12] (setting [14]), the kss entry was “around 10^−3 s^−1” and the “kss/[Glucose]” value is given as 10^−3 M^−1·s^−1. Moreover, in test [12] (monomer 2, fixed NaCl 20 mM, pH7.5), the kcat/KM glucose came out at 2.73 ± 1.5 M⁻¹ s⁻¹.
